Data: US4870081A (priority 1986, dated 1989)
Where a name gives a salt, the structure may show the parent alone. Read-outs that look alike come from different tables or passages of the source.

Assays:
[1] = molecular target: muscarinic receptors (rat cerebral cortex); assay: Radio ligand binding: displacement of the muscarinic agonist 3H-OXO-M (3H-Oxotremorine-M); design: species or system Hooded Lister rats; details: 2 nM 3H-OXO-M, 2 mM magnesium chloride, 37° C., 30 min
[2] = molecular target: muscarinic receptors (rat cerebral cortex); format: binding, Hooded Lister rats; details: 0.27 nM 3H-QNB, 37° C., 30 min

Row | Structure (SMILES) | IC50 [1] [nM] | IC50 [2] [nM]
1 | COC(=O)C1=CC2CCCN(C1)C2 (racemic) [E8, (±) Methyl 1-azabicyclo[3.3.1]non-3-en-3-yl carboxylate hydrochloride] | 118 | 4100
2 | CC(=O)O[C@@H]1C[C@H]2CCCN(C2)C1 (relative stereo) [E1, (±) exo-1-Azabicyclo[3.3.1]non-3-yl acetate hydrochloride] | 81 | 3900
3 | CCO[C@@H]1C[C@H]2CCCN(C2)C1 (relative stereo) [E2, (±) exo-3-Ethoxy-1-azabicyclo[3.3.1]nonane oxalate] | 210 | 6500
4 | NC(=O)O[C@@H]1C[C@H]2CCCN(C2)C1 (relative stereo) [E3, (±) exo-1-Azabicyclo[3.3.1]non-3-yl carbamate hydrochloride] | 103 | 36000
5 | COC(=O)[C@@H]1C[C@H]2CCCN(C2)C1 (relative stereo) [E4, (±) exo-Methyl 1-azabicyclo[3.3.1]non-3-yl carboxylate oxalate] | 81 | 3900
6 | COC(=O)[C@@H]1C[C@H]2CCCCN(C2)C1 (relative stereo) [E5, (±) exo-Methyl 1-azabicyclo[4.3.1]dec-8-yl carboxylate oxalate] | 153 | 3200
7 | CC(=O)O[C@H]1CN2CCC[C@H]1C2 (relative stereo) [E6, (±) exo-1-Azabicyclo[3.2.1]oct-6-yl acetate hydrochloride] | 82 | 27000
8 | COC(=O)[C@H]1CN2CCC[C@H]1C2 (relative stereo) [E7, (±) exo-Methyl 1-azabicyclo[3.2.1]oct-6-yl carboxylate hydrochloride] | 510 | 65000
9 | COC[C@@H]1C[C@H]2CCCN(C2)C1 (relative stereo) [E9, (±) exo-3-Methoxymethyl-1-azabicyclo[3.3.1]nonane oxalate salt] | 1300 | 38000
10 | C#CCOC(=O)[C@@H]1C[C@H]2CCCN(C2)C1 (relative stereo) [E10, (±) exo-Propargyl 1-azabicyclo[3.3.1]non-3-yl-carboxylate oxylate salt] | 40 | 510
11 | CNC(=O)O[C@@H]1C[C@H]2CCCN(C2)C1 (relative stereo) [E11, (±) exo-1-Azabicyclo[3.3.1]non-3-yl-N-methylcarbamate hydrochloride salt] | 460 | 5200
12 | CC(=O)O[C@H]1CN2CC[C@H]1C2 (relative stereo) [E12, (±) exo-1-Azabicyclo[2.2.1]hept-3-yl acetate oxalate salt] | 175 | 46000
13 | CCO[C@H]1CN2CC[C@H]1C2 (relative stereo) [E13, (±) exo-3-Ethoxy-1-azabicyclo[2.2.1]heptane oxalate salt] | 510 | 54000
14 | CC(=O)O[C@@H]1C[C@H]2CCN(C2)C1 (relative stereo) [E14, (±) exo-1-Azabicyclo[3.2.1]oct-3-yl acetate hydrochloride salt] | 38 | 14000
15 | COC(=O)[C@@H]1C[C@H]2CCN(C2)C1 (relative stereo) [E15, (±) exo-Methyl-1-azabicyclo[3.2.1]oct-3-yl carboxylate hydrochloride] | 80 | 11000
16 | COC(=O)[C@H]1CN2CC[C@H]1C2 (relative stereo) [E16, (±) exo-Methyl 1-azabicyclo[2.2.1]hept-3-yl carboxylate oxalate salt] | 190 | 60000
17 | CCC(=O)O[C@H]1CN2CCC[C@H]1C2 (relative stereo) [E17, (±) exo-1-Azabicyclo[3.2.1]oct-6-yl propionate hydrochloride] | 410 | 7300
18 | CCCO[C@H]1CN2CCC[C@H]1C2 (relative stereo) [E18, (±) exo-6-n-Propoxy-1-azabicyclo[3.2.1]octane hydrochloride] | 630 | 15500
19 | CCO[C@H]1CN2CCC[C@H]1C2 (relative stereo) [E19, (±) exo-6-Ethoxy-1-azabicycl9[3.2.1]octane hydrochloride] | 460 | 64000
20 | CNC(=O)O[C@H]1CN2CCC[C@H]1C2 (relative stereo) [E20, (±) exo-1-Azabicyclo[3.2.1]oct-6-yl-N-methylcarbamate oxalate salt] | 1900 | 42000
21 | CCC(=O)O[C@@H]1C[C@H]2CCCN(C2)C1 (relative stereo) [E21, (±) exo-1-Azabicyclo[3.3.1]non-3-yl propionate hydrochloride salt] | 367 | 1000
22 | CO[C@@H]1C[C@H]2CCCN(C2)C1 (relative stereo) [E22, (±) exo-3-Methoxy-1-azabicyclo[3.3.1]nonane oxalate salt] | 5000 | 170000
23 | CCCO[C@@H]1C[C@H]2CCCN(C2)C1 (relative stereo) [E23, (±) exo-3-n-Propoxy-1-azabicyclo[3.3.1]nonane oxalate salt] | 160 | 1200
24 | CN(C)C(=O)O[C@@H]1C[C@H]2CCCN(C2)C1 (relative stereo) [E24, (±) exo-1-Azabicyclo[3.3.1]non-3-yl-N,N-dimetnyl-carbamate hydrochloride] | 255 | 1800
25 | CCOC(=O)[C@@H]1C[C@H]2CCCN(C2)C1 (relative stereo) [E25, (±) exo-Ethyl 1-azabicyclo[3.3.1]non-3yl carboxylate oxalate salt] | 65 | 620
